# Source: ChEMBL document CHEMBL1143395, “Cloning, expression, post-translational modifications and inhibition studies on the latest mammalian carbonic anhydrase isoform, CA XV” (J Med Chem, 2009)
# Assays:
# Carbonic anhydrase 15 = target: T1, Carbonic anhydrase 15 (Mus musculus, UniProt Q99N23)
# T1 sequence (Q99N23 whole entry): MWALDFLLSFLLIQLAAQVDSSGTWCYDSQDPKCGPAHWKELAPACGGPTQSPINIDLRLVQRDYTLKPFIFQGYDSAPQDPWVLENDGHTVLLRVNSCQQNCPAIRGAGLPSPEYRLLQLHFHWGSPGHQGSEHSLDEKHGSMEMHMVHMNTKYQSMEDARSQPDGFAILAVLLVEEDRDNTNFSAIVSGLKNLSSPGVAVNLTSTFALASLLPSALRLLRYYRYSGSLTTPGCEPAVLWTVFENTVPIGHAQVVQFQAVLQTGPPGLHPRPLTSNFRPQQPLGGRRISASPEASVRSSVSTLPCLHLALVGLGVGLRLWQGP
# Carbonic anhydrase 6 = Carbonic anhydrase 6 (Homo sapiens, UniProt P23280)
# Carbonic anhydrase 6, sequence (P23280 whole entry): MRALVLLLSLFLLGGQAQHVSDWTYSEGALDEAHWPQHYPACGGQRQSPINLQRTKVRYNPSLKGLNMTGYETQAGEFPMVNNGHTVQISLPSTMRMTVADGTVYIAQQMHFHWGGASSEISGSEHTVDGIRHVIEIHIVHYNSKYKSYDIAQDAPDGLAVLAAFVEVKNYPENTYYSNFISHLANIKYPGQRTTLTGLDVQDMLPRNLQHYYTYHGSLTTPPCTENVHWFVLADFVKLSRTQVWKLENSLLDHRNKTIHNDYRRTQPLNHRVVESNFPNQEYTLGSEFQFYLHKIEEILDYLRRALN
Ki (Carbonic anhydrase 15),Ki (Carbonic anhydrase 6),Structure (SMILES)
6900 nM,–,NNc1ccccc1S(N)(=O)=O
49 nM,–,Nc1ccc(S(=O)(=O)NCc2ccc(S(N)(=O)=O)cc2)cc1
67 nM,–,Nc1nccc(Nc2ccc(S(N)(=O)=O)cc2)n1
8810 nM,–,Nc1ccccc1S(N)(=O)=O
83 nM,–,Nc1ccc(S(N)(=O)=O)cc1Br
49 nM,–,Cn1nc(S(N)(=O)=O)sc1=N
79 nM,–,Nc1ccc(S(N)(=O)=O)cc1F
62 nM,–,Nc1ccc(S(N)(=O)=O)cc1Cl
63 nM,–,Nc1ccc(S(=O)(=O)NCCc2ccc(S(N)(=O)=O)cc2)cc1
9540 nM,–,NNc1ccc(S(N)(=O)=O)cc1
70 nM,–,NS(=O)(=O)c1nnc(NS(=O)(=O)c2ccccc2)s1 [BENZOLAMIDE]
65 nM,–,CC(=O)/N=c1/sc(S(N)(=O)=O)nn1C [METHAZOLAMIDE]
7990 nM,–,Cc1ccc(S(N)(=O)=O)cc1 [P-TOLUENESULFONAMIDE]
9610 nM,–,Nc1ccc(S(N)(=O)=O)cc1 [SULFANILAMIDE]
78 nM,–,CC1(C)O[C@@H]2[C@@H](CO[C@@]3(COS(N)(=O)=O)OC(C)(C)O[C@@H]23)O1 [TOPIRAMATE]
634 nM,–,NS(=O)(=O)Cc1noc2ccccc12 [ZONISAMIDE]

# Second part, the compound before the results:
Structure (SMILES),Ki (Carbonic anhydrase 15),Ki (Carbonic anhydrase 6)
Nc1nnc(S(N)(=O)=O)s1,48 nM,–
Nc1cc(Cl)c(S(N)(=O)=O)cc1S(N)(=O)=O,757 nM,–
NS(=O)(=O)c1nnc(-c2ccccc2Cl)s1,60 nM,–
NS(=O)(=O)c1nc2ccc(O)cc2s1,64 nM,–
NS(=O)(=O)c1ccc(CCO)cc1,4660 nM,–
NS(=O)(=O)c1ccc(CO)cc1,4560 nM,–
NS(=O)(=O)c1ccc(S(=O)(=O)Nc2cccc3c(Cl)c[nH]c23)cc1,72 nM,–
CCN[C@H]1CN(CCCOC)S(=O)(=O)c2sc(S(N)(=O)=O)cc21 [BRINZOLAMIDE],61 nM,–
NS(=O)(=O)c1ccc(C(=O)O)cc1 [CARZENIDE],4650 nM,–
Cc1ccc(-c2cc(C(F)(F)F)nn2-c2ccc(S(N)(=O)=O)cc2)cc1 [CELECOXIB],–,94 nM
NS(=O)(=O)c1cc(Cl)c(Cl)c(S(N)(=O)=O)c1 [DICHLORPHENAMIDE],95 nM,–
CCOc1ccc2nc(S(N)(=O)=O)sc2c1 [ETHOXZOLAMIDE],58 nM,–
NCc1ccc(S(N)(=O)=O)cc1 [MAFENIDE],970 nM,–
